The results in this text go back to ChEMBL document CHEMBL1124001, “Synthesis and antileukemic activity of bis[[(carbamoyl)oxy]methyl]- substituted pyrrolo[2,1-a]isoquinolines, pyrrolo[1,2-a]quinolines, pyrrolo[2,1-a]isobenzazepines, and pyrrolo[1,2-a]benzazepines” (J Med Chem, 1988).

Series [1] deals with Mus musculus. Briefly: Ratio of treated to that of untreated tumor-bearing control animals at 1.87 mg/kg intraperitoneally in CD2F1 mice was determined. Format: functional. As to conditions: route intraperitoneal.
Series [2] concerns Mus musculus. Briefly: Toxicity day survivors was determined by the ratio of animals survived to that of test animals at 60 mg/kg intraperitoneally in CD2F1 mice; 4/6. Format: organism-based. On the set-up: dose 60 mg/kg, route intraperitoneal. As to conditions: in vivo, ip.
Series [3] concerns Mus musculus. Kind of series: Body weight change of test animals to that of control was determined after injection at 3.75 mg/kg intraperitoneally in CD2F1 mice. Format: functional. Particulars: route intraperitoneal.
In series [4] the test system is Mus musculus. Kind of series: Net log cell kill was determined after injecting 15 mg/kg intraperitoneally in CD2F1 mice. As to conditions: route intraperitoneal. Type of series: functional.
Series [5] relates to Mus musculus. Kind of series: Body weight change of test animals to that of control was determined after injection at 7.5 mg/kg intraperitoneally in CD2F1 mice. Format: functional. As to conditions: route intraperitoneal.
Series [6] has as its system Mus musculus. Kind of series: Ratio of treated to that of untreated tumor-bearing control animals at 7.5 mg/kg intraperitoneally in CD2F1 mice was determined. Format: functional. Particulars: route intraperitoneal.
The test system of series [7] is Mus musculus. Kind of series: Toxicity day survivors was determined by the ratio of animals survived to that of test animals at 3.75 mg/kg intraperitoneally in CD2F1 mice; 6/6. Type of series: organism-based. Particulars: in vivo, ip. Details: dose 3.75 mg/kg, route intraperitoneal.
The subject of series [8] is Mus musculus. Briefly: Net log cell kill was determined after injecting 3.75 mg/kg intraperitoneally in CD2F1 mice. As to conditions: route intraperitoneal. Type of series: functional.
In series [9] the test system is Mus musculus. Kind of series: Net log cell kill was determined after injecting 7.5 mg/kg intraperitoneally in CD2F1 mice. Type of series: functional. As to conditions: route intraperitoneal.
The subject of series [10] is Mus musculus. Briefly: Body weight change of test animals to that of control was determined after injection at 1.87 mg/kg intraperitoneally in CD2F1 mice. Format: functional. Particulars: route intraperitoneal.
Series [11] has as its system Mus musculus. Briefly: Ratio of treated to that of untreated tumor-bearing control animals at 15 mg/kg intraperitoneally in CD2F1 mice was determined. Format: functional. As to conditions: route intraperitoneal.
The subject of series [12] is Mus musculus. Briefly: Net log cell kill was determined after injecting 1.87 mg/kg intraperitoneally in CD2F1 mice. Type of series: functional. Particulars: route intraperitoneal.
The subject of series [13] is Mus musculus. Briefly: Toxicity day survivors was determined by the ratio of animals survived to that of test animals at 15 mg/kg intraperitoneally in CD2F1 mice; 6/6. Type of series: organism-based. Particulars: in vivo, ip. Details: dose 15 mg/kg, route intraperitoneal.
Series [14] relates to Mus musculus. Briefly: Body weight change of test animals to that of control was determined after injection at 60 mg/kg intraperitoneally in CD2F1 mice. Type of series: functional. As to conditions: route intraperitoneal.
The test system of series [15] is Mus musculus. Kind of series: Body weight change of test animals to that of control was determined after injection at 15 mg/kg intraperitoneally in CD2F1 mice. As to conditions: route intraperitoneal. Format: functional.
Series [16] has as its system Mus musculus. Kind of series: Toxicity day survivors was determined by the ratio of animals survived to that of test animals at 1.87 mg/kg intraperitoneally in CD2F1 mice; 6/6. Details: dose 1.87 mg/kg, route intraperitoneal. Type of series: organism-based. As to conditions: in vivo, ip.
The test system of series [17] is Mus musculus. Kind of series: Toxicity day survivors was determined by the ratio of animals survived to that of test animals at 7.5 mg/kg intraperitoneally in CD2F1 mice; 6/6. Format: organism-based. On the set-up: dose 7.5 mg/kg, route intraperitoneal. As to conditions: in vivo, ip.
For series [18], the system named is Mus musculus. Kind of series: Ratio of treated to that of untreated tumor-bearing control animals at 3.75 mg/kg intraperitoneally in CD2F1 mice was determined. Type of series: functional. As to conditions: route intraperitoneal.
For series [19], the system named is Mus musculus. Briefly: Net log cell kill was determined after injecting 60 mg/kg intraperitoneally in CD2F1 mice. Particulars: route intraperitoneal. Format: functional.
The subject of series [20] is Mus musculus. Kind of series: Ratio of treated to that of untreated tumor-bearing control animals 30 mg/kg intraperitoneally in CD2F1 mice was determined. Format: functional. As to conditions: route intraperitoneal.
Series [21] concerns Mus musculus. Kind of series: Net log cell kill was determined after injecting 30 mg/kg intraperitoneally in CD2F1 mice. Type of series: functional. Particulars: route intraperitoneal.
The test system of series [22] is Mus musculus. Briefly: Toxicity day survivors was determined by the ratio of animals survived to that of test animals at 120 mg/kg intraperitoneally in CD2F1 mice; 6/6. Format: organism-based. On the set-up: dose 120 mg/kg, route intraperitoneal. As to conditions: in vivo, ip.
In series [23] the test system is Mus musculus. Kind of series: Net log cell kill was determined after injecting 120 mg/kg intraperitoneally in CD2F1 mice. Type of series: functional. As to conditions: route intraperitoneal.
Series [24] relates to Mus musculus. Kind of series: Toxicity day survivors was determined by the ratio of animals survived to that of test animals at 30 mg/kg intraperitoneally in CD2F1 mice; 6/6. On the set-up: dose 30 mg/kg, route intraperitoneal. Particulars: in vivo, ip. Format: organism-based.
The test system of series [25] is Mus musculus. Briefly: Body weight change of test animals to that of control was determined after injection at 30 mg/kg intraperitoneally in CD2F1 mice. Format: functional. Particulars: route intraperitoneal.
Series [26] relates to Mus musculus. Kind of series: Net log cell kill was determined after injecting 240 mg/kg intraperitoneally in CD2F1 mice. Particulars: route intraperitoneal. Type of series: functional.
Series [27] deals with Mus musculus. Briefly: Ratio of treated to that of untreated tumor-bearing control animals at 240 mg/kg intraperitoneally in CD2F1 mice was determined. Format: functional. Particulars: route intraperitoneal.
The subject of series [28] is Mus musculus. Kind of series: Body weight change of test animals to that of control was determined after injection at 120 mg/kg intraperitoneally in CD2F1 mice. Format: functional. As to conditions: route intraperitoneal.
Series [29] concerns Mus musculus. Briefly: Toxicity day survivors was determined by the ratio of animals survived to that of test animals at 60 mg/kg intraperitoneally in CD2F1 mice; 6/6. Format: organism-based. Details: dose 60 mg/kg, route intraperitoneal. Particulars: in vivo, ip.
For series [30], the species on record is Mus musculus. Kind of series: Ratio of treated to that of untreated tumor-bearing control animals was determined. Format: functional.
In series [31] the test system is Mus musculus. Kind of series: Body weight change of test animals to that of control was determined after injection at 240 mg/kg intraperitoneally in CD2F1 mice. Format: functional. As to conditions: route intraperitoneal.
Series [32] relates to Mus musculus. Kind of series: Ratio of treated to that of untreated tumor-bearing control animals at 120 mg/kg intraperitoneally in CD2F1 mice was determined. Format: functional. Particulars: route intraperitoneal.
The test system of series [33] is Mus musculus. Briefly: Toxicity day survivors was determined by the ratio of animals survived to that of test animals at 240 mg/kg intraperitoneally in CD2F1 mice; 6/6. Type of series: organism-based. Details: dose 240 mg/kg, route intraperitoneal. Particulars: in vivo, ip.
In series [34] the test system is Mus musculus. Briefly: Ratio of treated to that of untreated tumor-bearing control animals at 30 mg/kg intraperitoneally in CD2F1 mice was determined. Format: functional. Particulars: route intraperitoneal.
The subject of series [35] is Mus musculus. Kind of series: Ratio of treated to that of untreated tumor-bearing control animals at 60 mg/kg intraperitoneally in CD2F1 mice was determined. Type of series: functional. Particulars: route intraperitoneal.

By T/C is commonly meant the result in the treated group divided by that in the control group, in per cent. As for `CNC(=O)OCc1c(COC(=O)NC)c2n(c1C)-c1ccc(OC)cc1CCC2`, the T/C with Mus musculus [1] came to 125%; in the series with Mus musculus [6], 147%; with Mus musculus [11], 144%; in the series on Mus musculus [18], 135%. The TDS with Mus musculus [2] came out at 4; in the series with Mus musculus [7], 6; in the series on Mus musculus [13], 6; with Mus musculus [16] it was 6; in the series on Mus musculus [17], 6. For the same compound, the T-C was -1.6 g in the series with Mus musculus [3]; -1.3 g in the series on Mus musculus [5]; -1 g with Mus musculus [10]; -2.8 g in the series with Mus musculus [14]; -1.2 g with Mus musculus [15]. For the same compound, the KE is 0.27 with Mus musculus [4], -0.06 in the series on Mus musculus [8], 0.55 in the series with Mus musculus [9] and -0.74 in the series with Mus musculus [12].

On to `COc1ccc2c(ccc3c(COC(=O)NC(C)C)c(COC(=O)NC(C)C)c(C)n32)c1`, for which the KE with Mus musculus [19] is -0.3; in the series on Mus musculus [4], -1.47; in the series on Mus musculus [21], -0.42; in the series on Mus musculus [23], -0.12; in the series on Mus musculus [26], 1.19. In addition, the T/C in the series with Mus musculus [20] was 112%; in the series on Mus musculus [11], 109%; with Mus musculus [27], 154%; in the series listed under Mus musculus [30], 128%; with Mus musculus [32], 131%. Also, the TDS in the series on Mus musculus [22], in the series with Mus musculus [24], with Mus musculus [13], in the series with Mus musculus [29] and with Mus musculus [33] was 6 each time. The T-C is reported as 0 g with Mus musculus [25]; 0.1 g in the series with Mus musculus [14]; -0.6 g with Mus musculus [28]; -0.1 g in the series on Mus musculus [15]; -3.5 g in the series with Mus musculus [31].

Take `Cc1c(COC(=O)NC(C)C)c(COC(=O)NC(C)C)c2ccc3ccccc3n12`: the KE in the series with Mus musculus [19] was 0.47; in the series on Mus musculus [21] it was -0.53; with Mus musculus [23] it was -1.5; in the series on Mus musculus [26], -0.5. Besides, the TDS in the series on Mus musculus [22], in the series with Mus musculus [24], in the series on Mus musculus [29] and with Mus musculus [33] was 6 throughout. In addition, the T-C is on record as -0.5 g with Mus musculus [25], -1.1 g in the series on Mus musculus [14], -1.8 g in the series with Mus musculus [28] and -3.5 g with Mus musculus [31]. Also, the T/C amounted to 129% in the series on Mus musculus [27], 135% in the series with Mus musculus [34], 139% with Mus musculus [35] and 106% in the series on Mus musculus [32].
